{
  "source": "patent US8703704B2",
  "about": "“Method for growing, restoring and regenerating hair” (priority 2009, dated 2014)",
  "key": {"[1]": {"test_system": "cardiac muscle of a patient suffering from the dilated cardiomyopathy", "assay": "Intermittent intravenous ANP in a patient with dilated cardiomyopathy", "format": "in vivo, human", "protocol": "A small quantity of ANP was administered intermittently, namely once for a week by 1 mg over 4 hours by means of intravenous injection to a patient diagnosed as suffering from the dilated cardiomyopathy who was […]. The contraction percentage was 19% before start of administration of ANP, but was improved up to 40% in 6 months, and also the systemic arterial capacity, which was NYHA IV before start of the treatment, was improved up to NYHA II. […] By continuing administration of ANP once a week for two years, the […] was improved up to NYHA I, and although the patient's prognosis was regarded as 6 months by the conventional therapy, it is now determined that the patient will be able to enjoy the ordinary domestic life for 10 years or more. The patient's cardiac muscle thickness and contractile activity are at present quite good."}, "[2]": {"test_system": "skin of hands (cracked and rough)", "assay": "ANP applied on hands with cracked and rough skin", "format": "in vivo, human", "conditions": "0.5 to 5 μg twice a day on backs and palms of both hands", "protocol": "The ANP according to the present invention was applied on both the backs and palms of both hands of a ceramic artist who touched water and mud every day at a dose of 0.5 to 5 μg twice a day."}, "KRT15": {"test_system": "KRT15", "assay": "RT-PCR expression of KRT15 in HaCat", "format": "cell-based, human", "conditions": "1 μM; 30 minutes after start of treatment; transitional", "protocol": "(§1) Human normal cornified cell stock HaCat was seeded in a 3.5 cm falcon flat bottom […] dish at the seeding rate of 2×10^4 cells/dish. In 3 days, ANP was added by 1 μM, and RNA was recovered using RNeasy plus (QUIAGEN) from the cells at the time points of 0 minute, 30 minutes, and 4 hours after start of the treatment. cDNA was synthesized using Superscript III (Invitrogen) from 0.2 μg of RNA, and the synthesized cDNA was used as a template for PCR. Using GAPDH as an internal control, the sample was subjected to PCR and then agarose electrophoresis, then stained by Cyber Safe (Invitrogen), the electrophoresis image was photographed on a UV transilluminator with a digital camera (Olympus C5060WZ), and thickness of each band was measured with the Image J (for densitometer analysis). […] Expression of BMP-2 increased by 1.5 times as compared to samples not treated in 4 hours after treatment with ANP."}, "[3]": {"test_system": "wounds caused by the surgical operation (laser removal of lentigo)", "assay": "ANP applied to facial wounds caused by laser surgery (left half treated, right half as comparison)", "format": "in vivo, human", "protocol": "In a patient who received operation for removing lentigo on the entire facial surface by the laser method, ANP was administered at a dose of 0.1 to 5 μg (with an isotonic aqueous solution at a dose of 0.01 ml to 0.5 ml) twice a day to wounds caused by the surgical operation or areas around the wounds on the left half of the patient's face, and the result was compared to wounds on the right side half of the patient's face. […] Furthermore, tension of skin was observed more clearly in the left side facial area as a whole as compared to that in the right side, and smoothness of the facial skin in the left side was improved."}, "[4]": {"test_system": "Human normal cornified cell stock HaCat", "assay": "Wound (scratch) test on confluent HaCat", "format": "cell-based", "protocol": "Human normal cornified cell stock HaCat was seeded in a falcon flat bottom 6-well dish at the seeding rate of 2×10^5 cells/dish. In 3 days, the cells in the confluent state were injured with a pipetteman chip, and the cells were washed with PBS twice, and then ANP was added so that the content was 1 μM (in OptiMEM serum free). In 24 hours, behaviors of the cells were observed (FIG. 4)."}, "[5]": {"test_system": "Human normal cornified cell stock HaCat", "assay": "Colony formation of HaCat in drops", "format": "cell-based", "conditions": "1 μM ANP", "protocol": "In the case of 10 μl drop, formation of any colony was not observed."}, "[6]": {"test_system": "head hairs of patients of thin hairs", "assay": "ANP applied on head skin of patients of thin hairs", "format": "in vivo, human", "protocol": "ANP was applied by 0.5 to 5 μg to two patients of thin hairs […], after the hairs were cleaned, twice a day (together with 0.5 ml of an isotonic aqueous solution) directly on the patients' head skin. States of pores and hairs and total state of head hairs after administration of ANP were observed and compared to those before start of administration of ANP. Observation of the states was also performed in 40 days and in 60 days after start of ANP administration for assessment. […] In 2 to 3 weeks after start of administration of ANP, it was observed that elasticity and solidity increased in total hairs on the patients' heads. In one month after start of ANP administration, the sites on each patient's head where the head skin had been visible became less visible. The retarded front line of head hairs again moved frontward, and new hairs grew up to the length of 5 to 7 mm. Furthermore, a second short hair was discovered at the side of a long grown hair. […] Black spiral hairs were observed under the pore portions. Just after the spiral hairs came out from under the head skin, the hairs kept the spiral state, but when the hairs become straight, the length was in the range from 3 to 4 mm."}, "Cyclin D1": {"test_system": "Cyclin D1", "assay": "RT-PCR expression of Cyclin D1 in HaCat", "format": "cell-based, human", "conditions": "1 μM", "protocol": "as §1"}},
  "note": "“Also recorded” adds a separate entry of the source.",
  "data": [
    {"molecule": "CC[C@H](C)[C@@H]1NC(=O)[C@H](CCCNC(=N)N)NC(=O)[C@H](CC(=O)O)NC(=O)[C@H](CCSC)NC(=O)[C@H](CCCNC(=N)N)NC(=O)CNC(=O)CNC(=O)[C@H](Cc2ccccc2)NC(=O)[C@@H](NC(=O)[C@H](CO)NC(=O)[C@H](CO)NC(=O)[C@H](CCCNC(=N)N)NC(=O)[C@H](CCCNC(=N)N)NC(=O)[C@H](CC(C)C)NC(=O)[C@@H](N)CO)CSSC[C@@H](C(=O)N[C@@H](CC(N)=O)C(=O)N[C@@H](CO)C(=O)N[C@@H](Cc2ccccc2)C(=O)N[C@@H](CCCNC(=N)N)C(=O)N[C@@H](Cc2ccc(O)cc2)C(=O)O)NC(=O)CNC(=O)[C@H](CC(C)C)NC(=O)CNC(=O)[C@H](CO)NC(=O)[C@H](CCC(N)=O)NC(=O)[C@H](C)NC(=O)CNC1=O", "note": "[ANP, atrial natriuretic peptide]", "values": [
      {"measurement": "contraction percentage", "setting": "[1]; 1 mg i.v. over 4 hours once a week, in 6 months, 19% before start", "value": 40, "unit": "%"},
      {"measurement": "NYHA class after continued administration", "setting": "[1]; ANP once a week for two years", "value": "NYHA I"},
      {"measurement": "cardiac muscle thickness (ultrasonic diagnosis)", "setting": "[1]; during ANP treatment", "value": "increased"},
      {"measurement": "NYHA functional class", "setting": "[1]; in 6 months, NYHA IV before start of the treatment", "value": "NYHA II"},
      {"measurement": "time the patient will be able to enjoy ordinary domestic life (prognosis)", "setting": "[1]; prognosis was 6 months by the conventional therapy", "value": "≥ 10", "unit": "years"},
      {"measurement": "cracked and rough skin symptoms", "setting": "[2]", "value": "remarkably improved"},
      {"measurement": "increase of expression rate of KRT15", "setting": "KRT15", "value": "about 20%"},
      {"measurement": "closure of wounds", "setting": "[3]; 0.1 to 5 μg twice a day, one week after start, versus untreated right side", "value": "most of the wounds were closed"},
      {"measurement": "restoration of wounds", "setting": "[3]; ANP area compared to control area / no ANP", "value": "advances far quickly; also recorded: more quickly restored"},
      {"measurement": "smoothness of the facial skin", "setting": "[3]; left (treated) side", "value": "improved"},
      {"measurement": "surgical traces", "setting": "[3]; sites where ANP was administered", "value": "less remarkable"},
      {"measurement": "reformation of subcutaneous tissue", "setting": "[3]; treated left half versus untreated right half of face", "value": "clearly earlier"},
      {"measurement": "cell motility", "setting": "[4]; 1 μM", "value": "rose"},
      {"measurement": "behaviour of cells at wound edges", "setting": "[4]; 1 μM in OptiMEM serum free, 24 hours", "value": "many rounding-like sites are observed; also recorded: rounding-like state was observed at many sites"},
      {"measurement": "capability of forming colonies", "setting": "[5]", "value": "form colonies; also recorded: colonies formed"},
      {"measurement": "growth of downy hairs on the frontal region", "setting": "[6]; 0.5 to 5 μg twice a day, one week after start", "value": "growth of hairs like downy hairs was observed"},
      {"measurement": "elasticity and solidity of total hairs", "setting": "[6]; 2 to 3 weeks after start", "value": "increased"},
      {"measurement": "thickness of head hairs", "setting": "[6]; 40 days after start", "value": "thickness increased"},
      {"measurement": "visibility of head skin", "setting": "[6]; 60 days after start", "value": "hardly visible"},
      {"measurement": "expression rate of Cyclin D1 relative to the original level", "setting": "Cyclin D1", "value": "⅓ and around ⅓"}
    ]}
  ]
}
